# Measurements: patent US20260132123A1, “ABAD INHIBITOR COMPOUNDS” (UNIVERSITY COURT OF THE UNIVERSITY OF ST ANDREWS, priority 2021, published 2026)
# Molecular target: T1, 17β-HSD10 (Homo sapiens, UniProt Q99714)
# T1 construct: Histev (histidine tag with TEV site) (N, cleaved yes); made in house; host or cells: E. coli BL21-CodonPlus
# T1 sequence (Q99714 1-261): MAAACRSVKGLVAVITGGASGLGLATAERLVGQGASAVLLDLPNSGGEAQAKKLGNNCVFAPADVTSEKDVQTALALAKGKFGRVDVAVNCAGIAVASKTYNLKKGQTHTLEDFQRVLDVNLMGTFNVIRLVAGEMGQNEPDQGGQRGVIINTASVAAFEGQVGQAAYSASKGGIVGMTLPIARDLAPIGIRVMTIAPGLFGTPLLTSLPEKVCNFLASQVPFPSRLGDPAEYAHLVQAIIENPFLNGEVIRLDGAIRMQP
# Test: 17β-HSD10 (ABAD) enzyme inhibition assay, NADH oxidation read at 340 nm (primary screen and dose response)
# Format: biochemical
# Details: for EC50 / Max. Effect (%) / Hill Slope / Max. Fit / Min. Fit: recombinant 17βHSD10 enzyme assay; for Hill Slope / Max. Fit / Min. Fit: curve fit
# Method: Cell pellets of E. coli BL21-CodonPlus cells containing Histev-17β-HSD10 protein were re-suspended for 30 min, 4° C., in lysis buffer (20 mM NaH2PO4, 30 mM imidazole, 500 mM NaCl, 10% (v/v) glycerol, pH 7.5) with the addition of complete ethylenediaminetetraacetic acid (EDTA)-free protease inhibitor tablets (Roche), lysozyme (1 mg/mL), deoxyribonuclease (DNase) (20 μg/mL) and Triton X-100 (0.1% (v/v)). Cells were lysed by passage through a cell disruptor at 30 kPSI (Constant Systems Ltd) and the lysate was cleared by centrifugation (Sorvall Evolution RC, rotor S5-34 55-34 angle, 20500 rpm, 30 min, 4° C.). Cleared lysate was filtered (0.45 μm membrane; Whatman) then applied to a Ni-nitrilotriacetic acid (NTA) (GE Healthcare) column pre-washed with lysis buffer and protein eluted with 300 mM imidazole buffer (20 mM NaH2PO4, 300 mM imidazole, 500 mM NaCl, 10% (v/v) glycerol, pH 7.5). […] Protein digestion and dialysis was carried out at 4° C. for 16 h.
# Complete digestion was firstly checked by sodium dodecyl sulfate-polyacrylamide gel electrophoresis (SDS-PAGE), then fully digested protein was passed over a second Ni-column and the flow-through, containing 17β-HSD10 protein, was concentrated using a Vivaspin column (10 kDa MWCO, GE Healthcare) to ˜7 mL before final purification using gel filtration to remove imidazole (Hi-Load 16/60 Superdex 75 prep grade column, GE Healthcare, flow rate 1.5 mL/min). Protein was eluted in gel filtration buffer (10 mM trisaminomethane (Tris-HCl), 150 mM NaCl, 10% glycerol, pH 7.5) and concentrated (Vivaspin column (10 kDa molecular weight cut off (MWCO), GE Healthcare)) to 10 mg/mL. Aliquots (10 μL) were taken and flash frozen in liquid nitrogen before final storage at −80° C.
# The assay buffer used contains: 10 mM Tris. HCl (pH 7.4), 150 mM NaCl, 1 mM DTT, 0.005% Tween (polysorbate 20) and 0.01% bovine serum albumin (BSA). As indicated for some experiments the assay buffer was supplemented with 100 units/ml bovine liver catalase. All experiments were conducted in clear bottom 384-well or 1536-well low volume microplates (Corning) with a final assay volume of 20 μL and the reaction progress was monitored by oxidation of NADH as determined by reduction in absorbance at 340 nm read on the EnVision plate reader (PerkinElmer).
# For primary screening an endpoint assay format was adopted in which an Echo acoustic liquid dispenser (Labcyte) was used to transfer 20 nL of either reference standard, dimethylsulfoxide (DMSO) control ([…] final assay concentration (FAC)) or test compounds (10 μM FAC) to the assay plate. 10 μL of 17β-HSD10 enzyme in assay buffer (2.5 nM, FAC) was then added to the plates using the Preddator liquid handling robot (Redd and Whyte) and plates were incubated at room temperature for 15 minutes. 10 μL of substrate mixture (100 μM acetoacetyl-CoA and 100 μM NADH, FAC) was added with the Preddator. To start the reaction and the plates were left to incubate for 35 minutes at room temperature before the absorbance at 340 nm was read on the EnVision plate reader (PerkinElmer). For kinetic assay format and dose response follow up experiments the same protocol was adopted but the absorbance at 340 nm was monitored constantly for 45 minutes from immediately after the reaction was started.
SMILES,EC50 [nM],Max. Effect (%),Hill Slope,Max. Fit,Min. Fit,17β-HSD10 / ABAD activity in words (SAR discussion)
COc1cccc(-c2ccccc2[C@H]2CCCN2C(=O)c2ccc(C)s2)c1 [ESC1002426],> 20000,22,,,,
COc1cccc(-c2ccccc2[C@H]2CCCN2C(=O)c2sc(C)nc2C)c1 [ESC1002427],> 20000,4,,,,
COc1cccc(-c2ccccc2[C@H]2CCCN2C(=O)c2cc(C)cs2)c1 [ESC1002428],> 20000,16,,,,
COc1cccc(-c2ccccc2[C@H]2CCCN2C(=O)c2snnc2C)c1 [ESC1002429],> 20000,6,,,,significantly less active
COc1cccc(-c2ccccc2[C@H]2CCCN2C(=O)c2scnc2C)c1 [ESC1002430],6030,65,1.2,80,−1,significantly less active
COc1cccc(-c2ccccc2[C@H]2CCCN2C(=O)c2sccc2OC)c1 [ESC1002433],> 20000,17,,,,
COc1cccc(-c2ccccc2[C@H]2CCCN2C(=O)c2ccccc2C)c1 [ESC1002434],> 20000,20,,,,not tolerated
COc1cccc(-c2ccccc2[C@H]2CCCN2C(=O)C2CCOCC2)c1 [ESC1002435],> 20000,12,,,,
COc1cccc(-c2ccccc2[C@H]2CCCN2C(=O)C2CCN(C)CC2)c1 [ESC1002436],> 20000,2,,,,
Cc1ccsc1C(=O)N1CCC[C@@H]1c1ccccc1-c1cnn(CCO)c1 [ESC1002463],3470,87,0.79,110,−6,
Cc1ccsc1C(=O)N1CCC[C@@H]1c1ccccc1-c1c[nH]nc1C [ESC1002464],2040,84,1.1,91,−5,
Cc1ccsc1C(=O)N1CCC[C@@H]1c1ccccc1-c1cnn(C2CCNCC2)c1 [ESC1002466],18200,52,1,95,−1,
COc1cccc(-c2ccccc2[C@H]2CCCN2Cc2ccccc2)c1 [ESC1002504],> 20000,−6,,,,
COc1cccc(-c2ccccc2[C@H]2CCCN2C(C)c2ccccc2)c1 (stereo partly drawn) [ESC1002505],> 20000,3,,,,

# Compounds with a lower EC50, results first:
EC50 [nM],Max. Effect (%),Hill Slope,Max. Fit,Min. Fit,17β-HSD10 / ABAD activity in words (SAR discussion),SMILES
562,93,1.6,90,1,,Cc1ccsc1C(=O)N1CCC[C@@H]1c1ccccc1-c1ccc(C2CC2)cc1 [ESC1002422]
380,96,2.3,93,9,,Cc1ccsc1C(=O)N1CCC[C@@H]1c1ccccc1-c1ccc(F)cc1 [ESC1002423]
933,96,1.3,96,2,,Cc1ccsc1C(=O)N1CCC[C@@H]1c1ccccc1-c1cnn(C)c1 [ESC1002424]
479,96,1.1,95,−8,,COc1cccc(-c2ccccc2[C@H]2CCCN2C(=O)c2cccs2)c1 [ESC1002425]
977,96,1.5,95,1,,COc1cccc(-c2ccccc2[C@H]2CCCN2C(=O)c2sccc2F)c1 [ESC1002431]
457,96,1.1,97,−8,,"CC(C)CN(C(=O)c1ccc(F)cc1F)c1cccc(N(C)Cc2c[nH]cn2)c1 [ESC1002454, 2,4-difluoro-N-[3-[1H-imidazol-4-ylmethyl(methyl)amino]phenyl]-N-isobutyl-benzamide]"
1260,92,0.99,97,−7,,"CC(C)CN(C(=O)c1ccc(C(F)(F)F)cc1F)c1cccc(N(C)Cc2c[nH]cn2)c1 [ESC1002455, 2-fluoro-N-[3-[1H-imidazol-4-ylmethyl(methyl)amino]phenyl]-N-isobutyl-4-(trifluoromethyl)benzamide]"
447,95,1.4,94,−4,,"CC(C)CN(C(=O)c1ccccc1Cl)c1cccc(N(C)Cc2c[nH]cn2)c1 [ESC1002457, 2-chloro-N-[3-[1H-imidazol-4-ylmethyl(methyl)amino]phenyl]-N-isobutyl-benzamide]"
550,96,1,97,−7,,COc1ccccc1C(=O)N(CC(C)C)c1cccc(N(C)Cc2c[nH]cn2)c1 [ESC1002458]
832,93,1.2,94,−4,,"CCc1ccc(C(=O)N(CC(C)C)c2cccc(N(C)Cc3c[nH]cn3)c2)cc1 [ESC1002459, 4-ethyl-N-[3-[1H-imidazol-4-ylmethyl(methyl)amino]phenyl]-N-isobutyl-benzamide]"
1200,90,1,95,−5,,"CC(C)CN(C(=O)c1ccc(Cl)s1)c1cccc(N(C)Cc2c[nH]cn2)c1 [ESC1002460, 5-chloro-N-[3-[1H-imidazol-4-ylmethyl(methyl)amino]phenyl]-N-isobutyl-thiophene-2-carboxamide]"
234,99,1.4,98,6,,Cc1ccsc1C(=O)N1CCC[C@@H]1c1ccccc1-c1ccccc1 [ESC1002462]
1510,87,1.2,90,−2,,Cc1ccsc1C(=O)N1CCC[C@@H]1c1ccccc1-c1c[nH]nc1C(F)(F)F [ESC1002465]
1170,96,1,102,2,,"Cc1ccccc1C(=O)N(CC(C)C)c1cccc(N(C)Cc2c[nH]cn2)c1 [ESC1002491, N-[3-[1H-imidazol-4-ylmethyl(methyl)amino]phenyl]-N-isobutyl-2-methyl-benzamide]"
871,93,0.73,104,−10,,"Cc1ccc(C(=O)N(CC(C)C)c2cccc(N(C)Cc3c[nH]cn3)c2)c(C)c1 [ESC1002492, N-[3-[1H-imidazol-4-ylmethyl(methyl)amino]phenyl]-N-isobutyl-2,4-dimethyl-benzamide]"
977,94,0.75,104,−8,,"CC(C)CN(C(=O)c1ccccc1C(F)(F)F)c1cccc(N(C)Cc2c[nH]cn2)c1 [ESC1002493, N-[3-[1H-imidazol 4-ylmethyl(methyl)amino]phenyl]-N-isobutyl-2-(trifluoromethyl)benzamide]"
